Assay results published in patent US8563253B2, “Means and method for diagnosing hemolytic anemia” (priority 2006, dated 2013).

Tested on: rats
Experiment: Plasma metabolite profiling (GC-MS/LC-MS) of rats treated with aniline; biomarkers for aniline-inducible hemolytic anemia
Type: in vivo, rat
Protocol: A group of each 5 male and female rats was dosed once daily with aniline at 10 and 100 mg/kg body weight per gavage over 28 days. Additional groups of each 5 male and female animals served as controls. Before starting the treatment period, animals, which were 62-64 days old when supplied, were acclimatized to the housing and environmental conditions for 7 days. All animals of the animal population were kept under the same constant temperature (20-24±3° C.) and the same constant humidity (30-70%). Each animal of the animal population was kept in a separate cage. The animals of the animal population are fed ad libitum. The food to be used was be essentially free of chemical or microbial contaminants. Drinking water was also offered ad libitum. Accordingly, the water was be free of chemical and microbial contaminants as laid down in the European Drinking Water Directive 98/83/EG. The illumination period was 12 hours light followed by 12 hours darkness (12 hours light, from 6:00 to 18:00, and 12 hours darkness, from 18:00 to 6:00).
In the morning of day 7, 14, and 28, blood was taken from the retroorbital venous plexus from fasted anaesthetized animals. From each animal, 1 ml of blood was collected with EDTA as anticoagulant. The samples were be centrifuged for generation of plasma. All plasma samples were covered with a N2 atmosphere and then stored at −80° C. until analysis.
For mass spectrometry-based metabolite profiling analyses plasma samples were extracted and a polar and a non-polar fraction was obtained. For GC-MS analysis, the non-polar fraction was hydrolyzed under acidic conditions to yield the fatty acid methyl esters. Both fractions were further derivatised with a silylating agent before analysis. In LC-MS analysis, both fractions were reconstituted in appropriate solvent mixtures. HPLC was performed by gradient elution on reversed phase separation columns. For mass spectrometric detection metanomics proprietary technology was applied which allows target and high sensitivity MRM (Multiple Reaction Monitoring) profiling in parallel to a full screen analysis. […] Moreover, several hundred further analytes giving a fingerprint of the sample are included in the methods.
Following comprehensive analytical validation steps, the data for each analyte were normalized against data from pool samples. These samples were run in parallel through the whole process to account for process variability. The significance of treatment group values specific for sex, dose group and metabolite was determined by comparing means of the treated groups to the means of the respective untreated control groups using Student's t-test. Normalized treatment group values and their significance were fed into a database for further statistics and data mining processes.
The changes of the group of plasma metabolites being indicative for hemolytic anemia after treatment of rats with aniline are shown in the following table: […]

[1] = female rats, day 7, 100 mg/kg body weight/day by gavage
[2] = female rats, day 14, 100 mg/kg body weight/day by gavage
[3] = female rats, day 28, 100 mg/kg body weight/day by gavage
[4] = male and female rats, 100 mg/kg body weight/day by gavage for 28 days
[5] = male rats, day 7, 100 mg/kg body weight/day by gavage
[6] = male rats, day 14, 100 mg/kg body weight/day by gavage
[7] = male rats, day 28, 100 mg/kg body weight/day by gavage

Nc1ccccc1 [aniline]
11-desoxycortisol, fold change against controls [1]: 0.39 fold | 18-hydroxycorticosterone, fold change against controls [1]: 0.43 fold | cytosine, fold change against controls [1]: 1.81 fold | ribal (1,4-anhydro-2-deoxy-D-erythro-pent-1-enitol) (=MetID 407), fold change against controls [1]: 1.79 fold | 11-desoxycortisol, fold change against controls [2]: 0.71 fold | 18-hydroxycorticosterone, fold change against controls [2]: 0.71 fold | cytosine, fold change against controls [2]: 1.18 fold | ribal (1,4-anhydro-2-deoxy-D-erythro-pent-1-enitol) (=MetID 407), fold change against controls [2]: 1.66 fold | 11-desoxycortisol, fold change against controls [3]: 0.41 fold | 18-hydroxycorticosterone, fold change against controls [3]: 0.47 fold | cytosine, fold change against controls [3]: 1.38 fold | ribal (1,4-anhydro-2-deoxy-D-erythro-pent-1-enitol) (=MetID 407), fold change against controls [3]: 1.59 fold | Regulation of 11-desoxycortisol [4]: down | Regulation of 18-hydroxycorticosterone [4]: down | Regulation of cytosine [4]: up | Regulation of ribal (1,4-anhydro-2-deoxy-D-erythro-pent-1-enitol) (=MetID 407) [4]: up | 11-desoxycortisol, fold change against controls [5]: 0.47 fold | 18-hydroxycorticosterone, fold change against controls [5]: 0.34 fold | cytosine, fold change against controls [5]: 1.50 fold | ribal (1,4-anhydro-2-deoxy-D-erythro-pent-1-enitol) (=MetID 407), fold change against controls [5]: 1.68 fold | 11-desoxycortisol, fold change against controls [6]: 0.48 fold | 18-hydroxycorticosterone, fold change against controls [6]: 0.33 fold | cytosine, fold change against controls [6]: 1.17 fold | ribal (1,4-anhydro-2-deoxy-D-erythro-pent-1-enitol) (=MetID 407), fold change against controls [6]: 1.42 fold | 11-desoxycortisol, fold change against controls [7]: 0.27 fold | 18-hydroxycorticosterone, fold change against controls [7]: 0.18 fold | cytosine, fold change against controls [7]: 1.71 fold | ribal (1,4-anhydro-2-deoxy-D-erythro-pent-1-enitol) (=MetID 407), fold change against controls [7]: 1.82 fold
